In publication PMC5817852 (The Open Medicinal Chemistry Journal, 2018):
Like-named read-outs stand apart in the source and are kept apart here.

How the values were obtained:
[1] = test system: HT29 colorectal carcinoma; assay: qHTS cell viability screen (Cell Titer Glo), HT29; assay type: cell-based
[2] = test system: BJ cells, normal human foreskin fibroblast cell line; assay: BJ cell cytotoxicity counter screen; conditions: read-out: EC50 BJ (cytotoxicity); BJ normal human foreskin fibroblasts; confidence intervals in parentheses
Excerpt: (§1) Most analogs in the presented series are lipophilic while also containing a positively charged amine. Lipophilic basic amines can accumulate in cell membranes if their lipophilic atom groups form favorable non-polar contacts with lipid chains while their charged amine is interacting with fatty acid head groups. Such association with lipids can lead to cytotoxicity through membrane destabilization. Therefore, we evaluated a number of representative compounds against BJ cells, a normal human foreskin fibroblast cell line, where cytotoxicity was determined at 10 µM drug concentration, as described previously.
(§2) minimum locked at 0 and 100 respectively.
(§3) children with ALL in relapse.
(§4) foreskin fibroblast cell line (BJ).
(§5) Table 2. […] SSA: Sulindac sulfide

[3] = test system: MDA-MB-231 breast cancer cell line; assay: qHTS cell viability screen (Cell Titer Glo), MDA-MB-231; assay type: cell-based
[4] = test system: PC3 prostate cancer cell line; assay: qHTS cell viability screen (Cell Titer Glo), PC3; assay type: cell-based; conditions: read-out: CC50 PC3
[5] = BJ cell cytotoxicity counter screen; conditions: human
Excerpt: as §1, §2, §3, §4, §5

[6] = test system: REH cells (precursor B-cell ALL); assay: Additional cancer cell line panel, REH; assay type: cell-based, human; conditions: Homo sapiens, REH, read-out: EC50 REH
[7] = HT29 colorectal carcinoma, 72 hours, cell viability Cell Titer Glo, read-out: CC50 HT29
[8] = MDA-MB-231 breast, 96 hours, cell viability Cell Titer Glo, read-out: CC50 MDA-MB-231
[9] = PC3 prostate, 72 hours, cell viability Cell Titer Glo
[10] = Homo sapiens, HT-29, 72 h, HT29 colorectal carcinoma, 72 hours, cell viability Cell Titer Glo, read-out: CC50 HT29
[11] = BJ cells (normal human foreskin fibroblast cell line)
[12] = Homo sapiens, MDA-MB-231, 96 h, MDA-MB-231 breast, 96 hours, cell viability Cell Titer Glo, read-out: CC50 MDA-MB-231
[13] = 72 h, PC3 prostate, 72 hours, cell viability Cell Titer Glo

Row | SMILES | CC50 [1, 7] | CC50 [3, 8] | CC50 [4, 9] | CC50 [1, 10] | CC50 [3, 12] | CC50 [4, 13] | also measured
1 | CSc1ccc(/C=C2/C(C)=C(CCNCc3ccco3)c3cc(F)ccc32)cc1 [Compound 8] | 4.27 ± 0.33 µM | 7.77 ± 0.54 µM | 9.94 ± 0.77 µM | – | – | – | EC50 [2]: > 7.57 µM
2 | CSc1ccc(/C=C2/C(C)=C(CNS(C)(=O)=O)c3cc(F)ccc32)cc1 [Compound 34] | – | – | – | 7.43 ± 0.48 µM | 9.06 ± 2.26 µM | 20.2 ± 3.2 µM | EC50 [5, 11]: > 22.7 µM; melting point: 159 to 160 °C
3 | CSc1ccc(/C=C2/C(C)=C(CNS(=O)(=O)c3cccc4c(N(C)C)cccc34)c3cc(F)ccc32)cc1 [Compound 40] | 38.4 ± 10.1 µM | > 50 µM | > 50 µM | – | – | – | –
4 | CSc1ccc(/C=C2/C(C)=C(CN(Cc3ccc(F)cc3)Cc3ccc(F)cc3)c3cc(F)ccc32)cc1 [Compound 50] | – | – | > 50 µM | – | – | – | CC50 [1]: > 50 µM; CC50 [3]: > 50 µM
5 | CSc1ccc(/C=C2/C(C)=C(CCNCCN3CCCCC3)c3cc(F)ccc32)cc1 [Compound 9] | 1.81 ± 0.06 µM | 3.73 ± 0.21 µM | 4.78 ± 0.2 µM | – | – | – | EC50 [2]: > 7.57 µM
6 | COc1cc(/C=C2/C(C)=C(CNS(=O)(=O)c3cccc4ccccc34)c3cc(F)ccc32)cc(OC)c1OC [Compound 45] | > 50 µM | > 50 µM | > 50 µM | – | – | – | –
7 | COc1cc(/C=C2/C(C)=C(CN(Cc3ccco3)Cc3ccco3)c3cc(F)ccc32)cc(OC)c1OC [Compound 61] | – | – | > 50 µM | – | – | – | CC50 [1]: > 50 µM; CC50 [3]: > 50 µM
8 | CSc1ccc(/C=C2/C(C)=C(CNS(=O)(=O)c3ccc4ccccc4c3)c3cc(F)ccc32)cc1 [Compound 39] | – | – | – | 25.6 ± 5.91 µM | 12.9 ± 2.39 µM | > 50 µM | melting point: 152 to 154 °C
9 | CSc1ccc(/C=C2/C(C)=C(CCNCc3ccccc3)c3cc(F)ccc32)cc1 [Compound 7] | 21.8 ± 2.29 µM | 46.5 ± 1.92 µM | > 50 µM | – | – | – | EC50 [2]: > 7.57 µM
10 | COc1cc(/C=C2/C(C)=C(CNS(=O)(=O)c3ccc4ccccc4c3)c3cc(F)ccc32)cc(OC)c1OC [Compound 46] | – | – | – | > 50 µM | > 50 µM | > 50 µM | melting point: 118 to 120 °C
11 | CSc1ccc(/C=C2/C(C)=C(CNS(=O)(=O)c3ccc(C)cc3)c3cc(F)ccc32)cc1 [Compound 37] | 8.08 ± 0.6 µM | 20.5 ± 5.18 µM | > 50 µM | – | – | – | –
12 | CC1=C(CCNCc2ccccc2)c2cc(F)ccc2/C1=C\c1ccc([S+](C)[O-])cc1 (stereo not drawn) [Compound 11] | – | – | – | 15.1 ± 1.42 µM | 48.6 ± 7.85 µM | 41.5 ± 5 µM | –
13 | COc1cc(/C=C2/C(C)=C(CNS(=O)(=O)c3ccccc3)c3cc(F)ccc32)cc(OC)c1OC [Compound 43] | 43.8 ± 23 µM | 16.3 ± 3.96 µM | 40.9 ± 16.8 µM | – | – | – | –
14 | COc1cc(/C=C2/C(C)=C(CNS(=O)(=O)c3cccc4c(N(C)C)cccc34)c3cc(F)ccc32)cc(OC)c1OC [Compound 47] | > 50 µM | > 50 µM | > 50 µM | – | – | – | –
15 | CSc1ccc(/C=C2/C(C)=C(CNC(=O)[C@@H](N)CO)c3cc(F)ccc32)cc1 [Compound 22] | – | – | – | 5.98 ± 0.24 µM | 7.43 ± 0.87 µM | 6.03 ± 0.41 µM | EC50 [5, 11]: > 22.7 µM; melting point: 146 to 148 °C
16 | CSc1ccc(/C=C2/C(C)=C(CN(Cc3ccc(N(C)C)cc3)Cc3ccc(N(C)C)cc3)c3cc(F)ccc32)cc1 [Compound 51] | – | – | > 50 µM | – | – | – | CC50 [1]: > 50 µM; CC50 [3]: > 50 µM
17 | CSc1ccc(/C=C2/C(C)=C(CNC(=O)CN)c3cc(F)ccc32)cc1 [Compound 21] | 5.49 ± 0.21 µM | 7.3 ± 0.62 µM | 7.27 ± 0.31 µM | – | – | – | EC50 [2]: > 22.7 µM
18 | COc1cc(/C=C2/C(C)=C(CNC(=O)c3ccco3)c3cc(F)ccc32)cc(OC)c1OC [Compound 27] | > 50 µM | > 50 µM | > 50 µM | – | – | – | –
19 | COc1cc(/C=C2/C(C)=C(CNC(=O)[C@@H](N)CC(C)C)c3cc(F)ccc32)cc(OC)c1OC [Compound 31] | – | – | – | – | – | – | CC50 ([1]; Homo sapiens, HT-29, 72 h, read-out: CC50 HT29): 5.21 ± 0.39 µM; EC50 [5]: > 22.7 µM; CC50 ([3]; Homo sapiens, MDA-MB-231, 96 h, read-out: CC50 MDA-MB-231): 8.87 ± 1.38 µM; EC50 [6]: 16 µM; CC50 ([4]; 72 h): 12 ± 1.47 µM
20 | CSc1ccc(/C=C2/C(C)=C(CCNC(=O)c3ccco3)c3cc(F)ccc32)cc1 [Compound 14] | – | – | – | 9.24 ± 1.18 µM | 16.8 ± 3.2 µM | 8.92 ± 0.83 µM | EC50 [5, 11]: > 7.57 µM; melting point: 168 to 170 °C
21 | CC1=C(CCNCc2ccccc2)c2cc(F)ccc2/C1=C\c1ccc(S(C)(=O)=O)cc1 [Compound 12] | – | – | – | 3.39 ± 0.28 µM | 4.52 ± 0.77 µM | 7.02 ± 0.48 µM | melting point: 96 to 98 °C
